Our source for the pKa values is patent US10639376B2, “Pharmaceutical compositions having improved storage stability” (ALKERMES PHARMA IRELAND LIMITED, priority 2012, dated 2020).

A short description of the data set: Solubility of Compound 1 in vehicles with various amounts of sorbitan monolaurate. The format is physicochemical. Conditions: from trend of Compound 1 concentration as a function of pH at a given SML concentration; read-out: estimated pKa. As for the experimental part: The solubility of Compound 1 was determined in vehicles containing 10 mM pH 7 phosphate buffer, 0.2% polysorbate 20 (PS), 0.8% saline, and various amounts of sorbitan monolaurate (SML). […] At a given SML concentration, the trend of Compound 1 concentration as a function of pH is consistent with an estimated pKa of ˜7. […] The degradation of dissolved Compound 1 was further followed in the drug vehicle containing 0.50% SML and 0.2% PS.

As a reminder, the pKa is the negative logarithm of the acid dissociation constant. On to `CCCCCCCCCCCC(=O)OCN1C(=O)CCc2ccc(OCCCCN3CCN(c4cccc(Cl)c4Cl)CC3)cc21` [Compound 1], for which the pKa was around 7.
